Test results as given in patent publication US20250049922A1, “PHARMACEUTICAL COMPOSITION COMPRISING P-BORONOPHENYLALANINE” (priority 2021, published 2025).

Experiment: Solubilization of BPA in aqueous solutions, visual inspection of dissolution
Format: physicochemical
Conditions: RT, after 2 hours
Protocol: BPA (L-p-boronophenylalanine, Katchem, Praha, Czech Republic) was weighed to a set of test tubes, 15 mg each (72 μmol). At room temperature (RT), 0.5 ml each of various aqueous solutions as listed below, were added into parallel test tubes and mixed vigorously. After 2 hours, the results of visual inspection of BPA dissolution and pH were as follows: […]

SMILES: N[C@@H](Cc1ccc(B(O)O)cc1)C(=O)O [BPA, L-p-boronophenylalanine]
- visual inspection of BPA dissolution (15 mg BPA in 0.5 ml 0.12 M L-histidine (neutral pH)): no dissolution
- visual inspection of BPA dissolution (15 mg BPA in 0.5 ml 0.5 M L-arginine (pH over 11)): partial dissolution
- visual inspection of BPA dissolution (15 mg BPA in 0.5 ml 0.5 M L-serine (neutral pH)): no dissolution
- visual inspection of BPA dissolution (15 mg BPA in 0.5 ml 0.5 M NaOH): complete dissolution
- visual inspection of BPA dissolution (15 mg BPA in 0.5 ml 0.5 M Tris (Trizma base, pH over 10)): complete dissolution
- visual inspection of BPA dissolution (15 mg BPA in 0.5 ml 0.5 M Tris-HCl (pH 8)): partial dissolution
- visual inspection of BPA dissolution (15 mg BPA in 0.5 ml 0.5 M propylene glycol): no dissolution
- visual inspection of BPA dissolution (15 mg BPA in 0.5 ml 0.5 M sodium-potassium tartrate (neutral pH)): partial dissolution
- visual inspection of BPA dissolution (15 mg BPA in 0.5 ml 96% ethanol (v/v)): no dissolution
- visual inspection of BPA dissolution (15 mg BPA in 0.5 ml deionized water): no dissolution
- visual inspection of BPA dissolution (15 mg BPA, 0.25 ml 0.5 M NaOH followed by 0.5 ml 0.5 M L-serine): complete dissolution
